Experimental data reported in patent US20060167001A1, “Pyridazinone-derivatives as pde4 inhibitors” (priority 2002, published 2006).
Where a name gives a salt, the structure may show the parent alone.

How the values were obtained:
PDE4B2 = target: T1, PDE4B2 (Homo sapiens, UniProt Q07343); test: Inhibition of recombinant PDE4B2, Method B (SPA test); assay type: biochemical; conditions: 0.5 μM cAMP, read-out: PDE4 Inhibition [measured as −logIC50 (mol/l)] (converted)
T1 construct: made in house; host or cells: baculovirus, SF21 insect cells (virus made in SF9); 1000 x g supernatant of the homogenate
Description: The PDE4B2 (GB no. M97515) was a gift of Prof. M. Conti (Stanford University, USA). It was amplified from the original plasmid (pCMV5) via PCR with primers Rb9 (5′-[…]-3′) and Rb10 (5′-[…]-3′) and cloned into the pCR-Bac vector (Invitrogen, Groningen, NL).
(§1) The recombinant baculovirus was prepared by means of homologous recombination in SF9 insect cells. The expression plasmids were cotransfected with Bac-N-Blue (Invitrogen, Groningen, NL) or Baculo-Gold DNA (Pharmingen, Hamburg) using a standard protocol (Pharmingen, Hamburg). Wt virus-free recombinant virus supernatants were selected using plaque assay methods. After that, high-titre virus supernatants were prepared by amplifying 3 times. PDEs were expressed in SF21 cells by infecting 2×10^6 cells/ml with an MOI (multiplicity of infection) between 1 and 10 in serum-free SF900 medium (Life Technologies, Paisley, UK). The cells were cultured at 28° C. for 48-72 hours, after which they were pelleted for 5-10 min at 1000 g and 4° C.
(§2) The SF21 insect cells were resuspended, at a concentration of approx. 10^7 cells/ml, in ice-cold (4° C.) homogenization buffer (20 mM Tris, pH 8.2, containing the following additions: 140 mM NaCl, 3.8 mM KCl, 1 mM EGTA, 1 mM MgCl2, 10 mM β-mercaptoethanol, 2 mM benzamidine, 0.4 mM Pefablock, 10 μM leupeptin, 10 μM pepstatin A, 5 μM trypsin inhibitor) and disrupted by ultrasonication. The homogenate was then centrifuged for 10 min at 1000× g and the supernatant was stored at −80° C. until subsequent use (see below). The protein content was determined by the Bradford method (BioRad, Munich) using BSA as the standard.
PDE3A1 and PDE4B2 activities were inhibited by the said compounds in a modified SPA (scintillation proximity assay) test, supplied by Amersham Biosciences (see procedural instructions “phosphodiesterase [3H]cAMP SPA enzyme assay, code TRKQ 7090”), carried out in 96-well microtitre plates (MTP's). The test volume is 100 μl and contains 20 mM Tris buffer (pH 7.4), 0.1 mg of BSA (bovine serum albumin)/ml, 5 mM Mg^2+, 0.5 μM cAMP (including about 50,000 cpm of [3H]cAMP), 1 μl of the respective substance dilution in DMSO and sufficient recombinant PDE (1000× g supernatant, see above) to ensure that 10-20% of the cAMP is converted under the said experimental conditions. […] After a preincubation of 5 min at 37° C., the reaction is started by adding the substrate (cAMP) and the assays are incubated for a further 15 min; after that, they are stopped by adding SPA beads (50 μl). In accordance with the manufacturer's instructions, the SPA beads had previously been resuspended in water, but were then diluted 1:3 (v/v) in water; the diluted solution also contains 3 mM IBMX to ensure a complete PDE activity stop. After the beads have been sedimented (>30 min), the MTP's are analyzed in commercially available luminescence detection devices. The corresponding IC50 values of the compounds for the inhibition of PDE activities are determined from the concentration-effect curves by means of non-linear regression.

PDE3A1 = target: T2, PDE3A1 (Homo sapiens, UniProt Q14432); test: Inhibition of recombinant PDE3A1, Method B (SPA test); assay type: biochemical; conditions: 0.5 μM cAMP, read-out: PDE3 Inhibition [measured as −logIC50 (mol/l)] (converted)
T2 construct: The whole ORF was subcloned into pBacPak9 (Clontech, Palo Alto) using EcoRi; made in house; host or cells: baculovirus (pBacPak9), SF21 insect cells (virus made in SF9); 1000 x g supernatant of the homogenate
Description: The cDNA for PDE3A1 (GB no. U36798) was isolated in 2 steps using PCR. A 3′ terminal cDNA fragment of PDE3A1 was amplified from fat cells cDNA (Clontech, Palo Alto) using primers OZ 458 (5′-[…]-3′) and OZ 457 (5′-[…]-3′). The 5′ terminal cDNA fragment of PDE3A1 was amplified from Placenta cDNA (Clontech, Palo Alto) using primers OZ 455 (5′-[…]-3′) and OZ 456 (5′-[…]-3′). The PCR products were cloned into pCR2.1-Topo (Invitrogen, Groningen, NL) under standard conditions (the manufacturer's instructions). The 3′ fragment was cut out with HindII and cloned into the HindII site of the construct carrying the 5′ fragment. The whole ORF was subcloned into pBacPak9 (Clontech, Palo Alto) using EcoRi. Aminoacid 12 is Aspartic Acid like in sequence GB no. AJ005036, aa 69 and aa 110 are respective Serine and Glycine like in both sequences GB no. AJ005036 and GB no. M91667.
as §1, §2
PDE3A1 and PDE4B2 activities were inhibited by the said compounds in a modified SPA (scintillation proximity assay) test, supplied by Amersham Biosciences (see procedural instructions “phosphodiesterase [3H]cAMP SPA enzyme assay, code TRKQ 7090”), carried out in 96-well microtitre plates (MTP's). The test volume is 100 μl and contains 20 mM Tris buffer (pH 7.4), 0.1 mg of BSA (bovine serum albumin)/ml, 5 mM Mg^2+, 0.5 μM cAMP (including about 50,000 cpm of [3H]cAMP), 1 μl of the respective substance dilution in DMSO and sufficient recombinant PDE (1000× g supernatant, see above) to ensure that 10-20% of the cAMP is converted under the said experimental conditions. […] After a preincubation of 5 min at 37° C., the reaction is started by adding the substrate (cAMP) and the assays are incubated for a further 15 min; after that, they are stopped by adding SPA beads (50 μl). […] After the beads have been sedimented (>30 min), the MTP's are analyzed in commercially available luminescence detection devices. The corresponding IC50 values of the compounds for the inhibition of PDE activities are determined from the concentration-effect curves by means of non-linear regression.

PDE4 (cAMP-specific) = PDE4 (cAMP-specific) (Homo sapiens, UniProt Q07343); test: Inhibition of PDE4 activity, Method A (radioactive cAMP hydrolysis, cytosol of human PMNL); assay type: biochemical; conditions: cAMP substrate, 1 μM motapizone
PDE3 (cGMP-inhibited) = target: T3, PDE3 (cGMP-inhibited) (Homo sapiens, UniProt Q14432); test: Inhibition of PDE3 activity, Method A (homogenates of human platelets); assay type: biochemical
T3 construct: investigated in homogenates of human platelets; from tissue; host or cells: homogenates of human platelets
Description: The PDE activity was determined according to Thompson et al. (Adv Cycl Nucl Res 10: 69-92, 1979) with some modifications (Bauer and Schwabe, Naunyn-Schmiedeberg's Arch Pharmacol 311: 193-198, 1980). The test samples contained 20 mM Tris (pH 7.4), 5 mM MgCl2, 0.5 μM cAMP or cGMP, [^3H]cAMP or [^3H]cGMP (about 30 000 cpm/sample), the PDE isoenzyme-specific additives described in greater detail below, the indicated concentrations of inhibitor and an aliquot of the enzyme solution in a total sample volume of 200 μl. Dilution series of the compounds according to the invention were prepared in DMSO and further diluted in the samples [1:100 (v/v)], to give the desired end concentration of the inhibitors at a DMSO concentration of 1% (v/v), which for its part has only a minute effect on PDE activity.
After preincubation at 37° C. for 5 minutes, the reaction was started by addition of the substrate (cAMP or cGMP). The samples were incubated at 37° C. for a further 15 min. The reaction was terminated by addition of 50 μl 0.2 N HCl. After cooling on ice for 10 minutes and addition of 25 μg 5′-nucleotidase (snake venom from Crotalus atrox), the mixture was again incubated at 37° C. for 10 mih and the samples were then applied to QAE Sephadex A-25 columns (sample volume 1 ml). The columns were eluted with 2 ml of 30 mM ammonium formate (pH 6.0). The radioactivity of the eluate was measured and corrected by the corresponding blank values (measured in the presence of denatured protein); the blank values were less than 5% of the total radioactivity. In no case did the proportion of hydrolyzed nucleotide exceed 30% of the original substrate concentration.
PDE3 (cGMP-inhibited) was investigated in homogenates of human platelets (see Schudt et al., Biochem Pharmacol 1991: 42, 153-162) using cAMP or cGMP as substrate.
The IC50 values were determined from the concentration-inhibition curves by nonlinear regression.

T1 sequence (Q07343 1-564 isoform Q07343-2): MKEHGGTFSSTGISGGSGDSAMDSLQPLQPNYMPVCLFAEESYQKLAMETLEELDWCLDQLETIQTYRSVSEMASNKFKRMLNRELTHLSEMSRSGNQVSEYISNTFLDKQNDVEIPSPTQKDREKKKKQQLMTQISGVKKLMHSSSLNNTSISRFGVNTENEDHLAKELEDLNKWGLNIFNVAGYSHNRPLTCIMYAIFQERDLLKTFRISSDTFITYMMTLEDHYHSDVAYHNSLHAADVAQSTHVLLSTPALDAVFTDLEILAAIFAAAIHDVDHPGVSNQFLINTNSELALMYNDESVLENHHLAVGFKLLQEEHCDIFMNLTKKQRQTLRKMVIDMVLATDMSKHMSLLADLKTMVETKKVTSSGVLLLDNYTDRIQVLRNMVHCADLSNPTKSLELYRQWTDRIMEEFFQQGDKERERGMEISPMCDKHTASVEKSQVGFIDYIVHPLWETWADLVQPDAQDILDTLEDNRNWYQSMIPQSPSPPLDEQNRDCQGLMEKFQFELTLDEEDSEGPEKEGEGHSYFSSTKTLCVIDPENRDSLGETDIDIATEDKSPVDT
T2 sequence (Q14432 whole entry): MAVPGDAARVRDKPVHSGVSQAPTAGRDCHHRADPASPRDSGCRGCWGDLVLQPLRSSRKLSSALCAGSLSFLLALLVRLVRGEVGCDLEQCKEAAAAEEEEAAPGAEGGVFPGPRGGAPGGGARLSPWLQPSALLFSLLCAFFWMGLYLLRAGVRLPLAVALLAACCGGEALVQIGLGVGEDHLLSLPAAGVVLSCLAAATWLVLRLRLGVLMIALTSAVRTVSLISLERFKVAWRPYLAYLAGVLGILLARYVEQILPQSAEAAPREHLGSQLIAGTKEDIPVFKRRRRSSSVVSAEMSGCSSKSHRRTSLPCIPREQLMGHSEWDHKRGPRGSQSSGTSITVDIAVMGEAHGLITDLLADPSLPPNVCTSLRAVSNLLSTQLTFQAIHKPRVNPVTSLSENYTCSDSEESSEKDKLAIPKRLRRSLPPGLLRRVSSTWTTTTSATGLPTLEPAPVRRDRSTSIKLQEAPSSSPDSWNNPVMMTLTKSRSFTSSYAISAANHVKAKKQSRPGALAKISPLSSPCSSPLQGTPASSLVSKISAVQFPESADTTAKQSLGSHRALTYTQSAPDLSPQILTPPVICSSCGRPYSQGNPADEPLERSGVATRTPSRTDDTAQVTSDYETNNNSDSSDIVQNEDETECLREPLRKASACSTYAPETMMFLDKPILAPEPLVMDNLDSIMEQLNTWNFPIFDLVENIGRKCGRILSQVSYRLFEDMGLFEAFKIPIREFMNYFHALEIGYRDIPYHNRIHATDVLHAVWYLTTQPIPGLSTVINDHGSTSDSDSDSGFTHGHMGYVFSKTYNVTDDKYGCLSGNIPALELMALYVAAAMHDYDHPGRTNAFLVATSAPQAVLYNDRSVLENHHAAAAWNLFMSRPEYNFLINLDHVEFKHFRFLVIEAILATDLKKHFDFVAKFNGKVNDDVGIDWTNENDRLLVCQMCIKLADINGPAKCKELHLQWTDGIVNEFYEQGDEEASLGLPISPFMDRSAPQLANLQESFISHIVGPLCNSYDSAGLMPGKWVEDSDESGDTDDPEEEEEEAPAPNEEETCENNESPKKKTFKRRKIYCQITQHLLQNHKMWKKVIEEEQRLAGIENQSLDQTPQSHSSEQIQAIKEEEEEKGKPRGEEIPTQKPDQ
Chain of PDE4 (cAMP-specific) (Q07343 whole entry): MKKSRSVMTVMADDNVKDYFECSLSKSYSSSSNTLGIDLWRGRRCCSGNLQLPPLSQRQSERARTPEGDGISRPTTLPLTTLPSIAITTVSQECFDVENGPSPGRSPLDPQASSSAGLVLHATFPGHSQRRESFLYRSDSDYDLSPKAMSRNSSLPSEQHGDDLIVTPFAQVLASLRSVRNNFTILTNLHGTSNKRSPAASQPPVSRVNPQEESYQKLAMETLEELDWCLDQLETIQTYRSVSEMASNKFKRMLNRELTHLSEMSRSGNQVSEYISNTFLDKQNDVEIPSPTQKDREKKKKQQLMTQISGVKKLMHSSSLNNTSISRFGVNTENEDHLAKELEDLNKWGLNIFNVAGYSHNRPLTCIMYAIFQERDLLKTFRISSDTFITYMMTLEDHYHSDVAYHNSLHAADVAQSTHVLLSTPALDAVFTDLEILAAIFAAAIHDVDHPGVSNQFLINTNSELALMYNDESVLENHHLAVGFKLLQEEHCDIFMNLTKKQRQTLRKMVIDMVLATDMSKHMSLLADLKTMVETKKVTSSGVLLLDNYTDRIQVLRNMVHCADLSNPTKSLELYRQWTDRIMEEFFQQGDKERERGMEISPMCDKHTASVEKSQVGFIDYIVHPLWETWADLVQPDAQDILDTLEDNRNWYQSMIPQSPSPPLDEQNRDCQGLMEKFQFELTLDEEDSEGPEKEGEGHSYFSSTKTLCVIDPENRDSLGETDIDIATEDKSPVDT
T3 sequence (Q14432 whole entry): as the sequence (Q14432 whole entry) above

Row | IC50 (PDE4B2) | IC50 (PDE3A1) | melting point | PDE4 Inhibition [measured as −logIC50 (mol/l)] (PDE4 (cAMP-specific)) | PDE3 Inhibition [measured as −logIC50 (mol/l)] (PDE3 (cGMP-inhibited)) | Compound
1 | – | – | – | 8.3 -log(mol/l) | 6.9 −log(mol/l) (pIC50) | COc1ccc(C2=NN(C3CCN(S(=O)(=O)c4cccs4)CC3)C(=O)CC2)cc1OC [Compound 19, 6-(3,4-Dimethoxy-phenyl)-2-[1-(thiophene-2-sulfonyl)-piperidin-4-yl]-45-dihydro-2H-pyridazin-3-one]
2 | – | – | – | 7.8 -log(mol/l) | 6.8 −log(mol/l) (pIC50) | COc1ccc(OC)c(S(=O)(=O)N2CCC(N3N=C(c4ccc(OC)c(OC)c4)CCC3=O)CC2)c1 [Compound 17]

Further lines, the compound ahead of its results:

Row | Compound | IC50 (PDE4B2) | IC50 (PDE3A1) | melting point | PDE4 Inhibition [measured as −logIC50 (mol/l)] (PDE4 (cAMP-specific)) | PDE3 Inhibition [measured as −logIC50 (mol/l)] (PDE3 (cGMP-inhibited))
3 | COc1ccc(C2=NN(C3CCN(CC(=O)N4CCN(C)CC4)CC3)C(=O)CC2)cc1OC.Cl.Cl [Compound 28, 6-(3,4-Dimethoxy-phenyl)-2-{1-[2-(4-methyl-piperazin-1-yl)-2-oxo-ethyl]-piperidin-4-yl}-4,5-dihydro-2H-pyridazin-3-one dihydrochloride] | 0.02 µM | > 10 µM | 194 to 199 °C | – | –
4 | COc1ccc(C2=NN(C3CCN(C(=O)CN4CCN(c5ccncc5)CC4)CC3)C(=O)CC2)cc1OC [Compound 29, 6-(3,4-Dimethoxy-phenyl)-2-{1-[2-(4-pyridin-4-yl-piperazin-1-yl)-ethanoyl]-piperidin-4-yl}-4,5-dihydro-2H-pyridazin-3-one dihydrochloride] | 0.0158 µM | 3.16 µM | – | – | –
5 | COc1ccc(C2=NN(C3CCN(C(=O)c4c(Cl)cc(Cl)cc4Cl)CC3)C(=O)CC2)cc1OC [Compound 25, 6-(3,4-Dimethoxy-phenyl)-2-{1-[1-(2,4,6-trichloro-phenyl)-methanoyl]-piperidin-4-yl}-4,5-dihydro-2H-pyridazin-3-one] | 0.00251 µM | 0.0158 µM | 156 to 159 °C | – | –
6 | COc1ccc(C2=NN(C3CCN(C(=O)CN4CCN(C(c5ccccc5)c5ccccc5)CC4)CC3)C(=O)CC2)cc1OC.Cl.Cl [Compound 31, 6-(3,4-Dimethoxy-phenyl)-2-(1-{2-[4-(1,1-diphenyl-methyl)-piperazin-1-yl]-ethanoyl}-piperidin-4-yl)-4,5-dihydro-2H-pyridazin-3-one dihydrochloride] | 0.0398 µM | 3.98 µM | 126 to 127 °C | – | –
7 | COc1ccc(C2=NN(C3CCN(C(=O)c4ccccc4)CC3)C(=O)CC2)cc1OC [Compound 23, 6-(3,4-Dimethoxy-phenyl)-2-[1-(1-phenyl-methanoyl)-piperidin-4-yl]-4,5-dihydro-2H-pyridazin-3-one] | 0.00794 µM | 0.126 µM | 152 to 154 °C | – | –
